Laboratory results published in patent US20230357168A1, “CARBOBICYCLIC NUCLEOSIDES FOR TREATMENT OF VIRAL INFECTION” (The Chinese University of Hong Kong, priority 2022, published 2023).

System: SARS-CoV-2 viral strains (including the original Wuhan strain and Delta and Omicron variants)
Experiment: Replication of SARS-CoV-2 viral strains in A549-ACE2 cell model (FIG. 2)
Assay type: cell-based
Details: done in triplicate

O=c1[nH]/c(=N\O)ccn1[C@@H]1C2=CCC[C@@H](O)[C@@H]2[C@@H](O)[C@H]1O [Compound 48, 4-(hydroxyimino)-1-((1R,2S,3R,3aR,4R)-2,3,4-trihydroxy-2,3,3a,4,5,6-hexahydro-1H-inden-1-yl)-3,4-dihydropyrimidin-2(1H)-one]
replication of different SARS-CoV-2 viral strains: inhibits the replication
